Measured values reported in publication PMC5540273, “Progress towards a public chemogenomic set for protein kinases and a call for contributions” (PLoS ONE, 2017).

How the values were obtained:
CDKL5 = molecular target: T1, CDKL5 (Homo sapiens, UniProt O76039); assay: KINOMEscan competition binding; conditions: read-out: %Inh CDKL5
T1 sequence (O76039 1-960): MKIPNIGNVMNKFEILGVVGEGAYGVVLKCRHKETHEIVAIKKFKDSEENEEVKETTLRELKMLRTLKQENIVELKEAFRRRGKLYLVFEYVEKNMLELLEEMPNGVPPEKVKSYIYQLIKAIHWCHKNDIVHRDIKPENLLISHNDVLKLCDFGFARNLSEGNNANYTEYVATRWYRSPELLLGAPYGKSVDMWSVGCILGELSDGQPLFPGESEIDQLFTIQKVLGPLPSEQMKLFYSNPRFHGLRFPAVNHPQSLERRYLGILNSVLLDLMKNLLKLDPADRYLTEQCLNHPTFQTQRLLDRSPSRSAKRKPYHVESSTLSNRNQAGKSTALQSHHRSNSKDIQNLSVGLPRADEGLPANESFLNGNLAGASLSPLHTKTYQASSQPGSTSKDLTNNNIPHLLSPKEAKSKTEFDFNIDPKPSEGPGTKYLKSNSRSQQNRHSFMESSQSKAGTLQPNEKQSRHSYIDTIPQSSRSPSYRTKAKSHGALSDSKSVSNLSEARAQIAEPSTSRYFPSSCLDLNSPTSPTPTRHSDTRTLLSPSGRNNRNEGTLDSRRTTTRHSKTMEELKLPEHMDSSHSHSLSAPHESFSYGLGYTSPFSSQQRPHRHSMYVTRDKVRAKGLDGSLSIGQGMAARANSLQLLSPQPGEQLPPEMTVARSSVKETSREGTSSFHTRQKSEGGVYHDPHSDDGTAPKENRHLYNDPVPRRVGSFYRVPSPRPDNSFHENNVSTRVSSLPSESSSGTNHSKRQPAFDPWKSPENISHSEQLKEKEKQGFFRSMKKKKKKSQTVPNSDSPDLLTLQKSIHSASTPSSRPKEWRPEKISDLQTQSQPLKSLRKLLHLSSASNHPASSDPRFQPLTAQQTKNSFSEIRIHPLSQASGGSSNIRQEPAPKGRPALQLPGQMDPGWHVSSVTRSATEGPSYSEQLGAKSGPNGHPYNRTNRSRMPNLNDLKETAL

CAMKK1 = CAMKK1 (Homo sapiens, UniProt Q8N5S9); assay: KINOMEscan competition binding; conditions: read-out: %Inh CAMKK1
Sequence of CAMKK1 (Q8N5S9 whole entry): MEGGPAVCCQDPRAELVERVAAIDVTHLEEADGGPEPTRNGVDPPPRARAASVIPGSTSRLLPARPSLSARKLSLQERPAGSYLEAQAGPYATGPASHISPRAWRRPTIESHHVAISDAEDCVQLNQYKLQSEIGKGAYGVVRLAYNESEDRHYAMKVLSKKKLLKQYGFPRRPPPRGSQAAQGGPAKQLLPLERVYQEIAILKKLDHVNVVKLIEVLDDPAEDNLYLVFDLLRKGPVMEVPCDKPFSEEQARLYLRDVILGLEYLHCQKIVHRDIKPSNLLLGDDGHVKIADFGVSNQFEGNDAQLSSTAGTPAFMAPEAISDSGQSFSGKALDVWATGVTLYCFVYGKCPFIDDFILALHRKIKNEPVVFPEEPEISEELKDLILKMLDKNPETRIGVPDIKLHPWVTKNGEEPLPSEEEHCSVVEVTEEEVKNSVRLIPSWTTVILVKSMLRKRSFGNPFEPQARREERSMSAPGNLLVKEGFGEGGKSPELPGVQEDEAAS

| SMILES | inhibition at 1 µM (CDKL5) | inhibition at 1 µM (CAMKK1) |
| --- | --- | --- |
| Cn1cc(-c2cnc(N)c3c(-c4ccc5c(c4)CCN5C(=O)Cc4ccccc4)csc23)cn1 [UNC10225012A] | 0% | 11% |
| O=c1cc(N2CCOCC2)nc2n(Cc3cccc(Cl)c3Cl)c(C3CC3)nn12 [UNC10225469A] | 0% | 3% |
| COc1cccc(OC)c1C(=O)Nc1cccc(-c2nn3ccccc3c2-c2ccnc(Nc3cccc(F)c3)n2)c1 [UNC10225310A] | 0% | 4% |
| CS(=O)(=O)Cc1ccc(Nc2nccc(-c3c(-c4cccc(NC(=O)C5CCCCC5)c4)nn4ncccc34)n2)cc1 [UNC10225159A] | 33% | 0% |
| Cc1ccc(NC(=O)Nc2cccc(C(F)(F)F)c2)cc1 [UNC10225187A] | 0% | 9% |
